Measured values taken from US9458164B2, “Pyrrolopyridazines as potassium ion channel inhibitors” (BRISTOL-MYERS SQUIBB COMPANY, priority 2013, dated 2016).

Target: T1, human KV 1.5 (IKur) (Homo sapiens, UniProt P22460)
T1 construct: expressed in transfected cells
Test: Block of IKur current in patch clamped L-929 cells expressing human Kv1.5
Assay type: cell-based
Details: L929, patch clamped mammalian L-929 cells stably expressing human Kv1.5, read-out: Percentage inhibition of Kv1.5 in L-929 cells at 0.3 μM
From the text: Assays to determine the degree of activity of a compound as an IKur inhibitor are well known in the art and are described in references such as J. Gen. Physiol., 101(4):513-543 (April 1993), and Br. J. Pharmacol., 115(2):267-274 (May 1995).
Synders, D. J. et al., “A rapidly activating and slowly inactivating potassium channel cloned from human heart: functional analysis after stable mammalian cell culture expression”, J. Gen. Physiol., 101:513-543 (1993). • 2. Zhou, Z. et al., “Block of HERG potassium channels by the antihistamine astemizole and its metabolites desmethylastemizole and norastemizole”, J. Cardiovasc. Electrophysiol., 10(6):836-843 (1999).

T1 sequence (P22460 whole entry): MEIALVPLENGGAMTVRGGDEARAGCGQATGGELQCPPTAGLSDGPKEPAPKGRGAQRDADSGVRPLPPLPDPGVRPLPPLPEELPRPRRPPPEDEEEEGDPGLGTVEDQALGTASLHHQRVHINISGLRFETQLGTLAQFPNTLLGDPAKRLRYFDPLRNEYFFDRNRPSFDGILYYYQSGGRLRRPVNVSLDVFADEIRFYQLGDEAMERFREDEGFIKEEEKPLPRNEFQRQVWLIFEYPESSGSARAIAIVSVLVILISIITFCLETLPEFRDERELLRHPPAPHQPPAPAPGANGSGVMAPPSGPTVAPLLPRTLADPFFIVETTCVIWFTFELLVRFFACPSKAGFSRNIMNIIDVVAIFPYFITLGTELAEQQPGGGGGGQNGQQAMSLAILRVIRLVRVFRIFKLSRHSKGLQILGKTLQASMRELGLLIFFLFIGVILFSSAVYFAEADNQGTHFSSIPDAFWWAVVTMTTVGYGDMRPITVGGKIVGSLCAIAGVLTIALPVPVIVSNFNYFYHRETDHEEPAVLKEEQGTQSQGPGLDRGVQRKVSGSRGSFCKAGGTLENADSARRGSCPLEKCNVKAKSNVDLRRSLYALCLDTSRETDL

| inhibition at 0.3 µM [%] | Structure (SMILES) |
| --- | --- |
| 99 | NS(=O)(=O)c1cncc(-c2cc(NCc3ccccc3)c3c(-c4ccccc4)ccn3n2)c1 [Example 1, 5-(4-(Benzylamino)-5-phenylpyrrolo[1,2-b]pyridazin-2-yl)pyridine-3-sulfonamide] |
| 98 | CS(=O)(=O)Nc1cncc(-c2cc(NCc3ccccc3)c3c(-c4ccccc4)ccn3n2)c1 [Example 4, N-(5-(4-(Benzylamino)-5-phenylpyrrolo[1,2-b]pyridazin-2-yl)pyridin-3-yl)methanesulfonamide] |
| 34 | CCOC(=O)c1cncc(-c2cc(NCc3ccccc3)c3c(-c4cncc(C(=O)OCC)c4)ccn3n2)c1 [Example 5, Diethyl 5,5′-(4-(benzylamino)pyrrolo[1,2-b]pyridazine-2,5-diyl)dinicotinate] |
| 98 | CC(=O)Nc1cncc(-c2cc(NCc3ccccc3)c3c(-c4ccccc4)ccn3n2)c1 [Example 3, N-(5-(4-(Benzylamino)-5-phenylpyrrolo[1,2-b]pyridazin-2-yl)pyridin-3-yl)acetamide] |
| 95 | NS(=O)(=O)c1cncc(-c2cc(NCc3ccccc3)c3c(-c4cccc(F)c4)ccn3n2)c1 [Example 6, 5-(4-(Benzylamino)-5-(3-fluorophenyl)pyrrolo[1,2-b]pyridazin-2-yl)-pyridine-3-sulfonamide] |

| Structure (SMILES) | inhibition at 0.3 µM [%] |
| --- | --- |
| CC(=O)NS(=O)(=O)c1cncc(-c2cc(NCc3ccccc3)c3c(-c4ccccc4)ccn3n2)c1 [Example 2, N-((5-(4-(Benzylamino)-5-phenylpyrrolo[1,2-b]pyridazin-2-yl)pyridin-3-yl)sulfonyl)acetamide] | 37 |
